Measured values published in patent US9220795B2, “Indole derivatives” (priority 2011, dated 2015).

Key:
Wistar rat heart PBR = target: T1, Wistar rat heart PBR (Rattus norvegicus, UniProt P16257); test: In vitro potency assay: competition for binding to PBR against 0.3 nM [3H]PK-11195; conditions: non-radioactive analogues; vs 0.3 nM [3H]PK-11195; 15 minutes at 25° C.; 6 concentrations
T1 construct: from tissue; host or cells: Wistar rat heart
Experimental: Affinity for PBR was screened using a method adapted from Le Fur et al (Life Sci. 1983; USA 33: 449-57). Non-radioactive analogues of in vivo imaging agents of the invention were tested along with a non-radioactive analogue of a previous tetracyclic indole imaging agent (from co-pending patent application PCT/EP2009/062827; synthesis described in Example 17 below):
Each test compound (dissolved in 50 mM Tris-HCl, pH 7.4, 10 mM MgCl2 containing 1% DMSO) competed for binding to Wistar rat heart PBR against 0.3 nM [^3H] PK-11195. The reaction was carried out in 50 mM Tris-HCl, pH 7.4 10 mM MgCl2 for 15 minutes at 25° C.

[1] = In vivo biodistribution method; design: species or system Adult male Wistar rats; conditions: for Brain 2 min (% ID/g): 2 min after injection via lateral tail vein, 1-3 MBq, n=3; for % Activity in Brain = Parent @ 60 min: 60 min after injection; for OB 30 min (% ID/g): olfactory bulb, 30 min after injection; for OB: Str 30 min: ratio olfactory bulb to striatum at 30 min; for Str 2: 30 min: ratio striatum 2 min to 30 min
Experimental: Imaging agents of the invention were tested in an in vivo biodistribution model along with a previous tetracyclic imaging agent (from co-pending patent application PCT/EP2009/062827; synthesis described in Example 18 below).

Row | SMILES | Ki (Wistar rat heart PBR) [nM] | Brain 2 min (% ID/g) [1] [% ID/g] | % Activity in Brain = Parent @ 60 min [1] [%] | OB 30 min (% ID/g) [1] [% ID/g] | OB: Str 30 min [1] | Str 2: 30 min [1]
1 | CCN(CC)C(=O)C1Sc2ccccc2-c2c1c1cc(OC)ccc1n2CCF (racemic) [tetracyclic indole, (+−)-11-(2-[^18F]fluoroethyl)-8-methoxy-6,11-dihydro-5-thia-11-aza-benzo[a]fluorene-6-carboxylic acid diethyl amide, reference compound] | 0.369 |  |  |  |  | 
2 | CCN(CC)C(=O)C1Sc2ccccc2-c2c1c1cc(OC)ccc1n2CC[18F] (racemic) [tetracyclic indole, (+−)-11-(2-[^18F]fluoroethyl)-8-methoxy-6,11-dihydro-5-thia-11-aza-benzo[a]fluorene-6-carboxylic acid diethyl amide, reference compound] |  | 0.32 | 96.00 | 0.31 | 2.07 | 1.73
3 | CCN(CC)C(=O)C1CCCc2c1c1c(OC)cccc1n2CCF (stereo not drawn) [Imaging agent 5, 9-(2-[^18F]-Fluoro-ethyl)-5-methoxy-2,3,4,9-tetrahydro-1H-carbazole-4-carboxylic acid diethylamide] | 2.35 |  |  |  |  | 
4 | O=C(C1CCCc2c1c1ccccc1n2CCF)N1CCCCC1 (stereo not drawn) [Imaging agent 6, [9-(2-[^18F]-Fluoro-ethyl)-2,3,4,9-tetrahydro-1H-carbazol-4-yl]-piperidin-1-yl-methanone] | 18.3 |  |  |  |  | 
5 | CN(Cc1ccccc1)C(=O)C1CCCc2c1c1ccccc1n2CCF (stereo not drawn) [Imaging agent 7, 9-(2-[^18F]fluoro-ethyl)-2,3,4,9-tetrahydro-1H-carbazole-4-carboxylic acid benzyl-methyl-amide] | 1.25 |  |  |  |  | 
6 | CN(Cc1ccccc1)C(=O)C1CCCc2c1c1ccccc1n2CC[18F] (stereo not drawn) [Imaging agent 7, 9-(2-[^18F]fluoro-ethyl)-2,3,4,9-tetrahydro-1H-carbazole-4-carboxylic acid benzyl-methyl-amide] |  | 0.55 | 81.28 | 0.34 | 3.40 | 4.70
7 | CCN(CC)C(=O)C1CCCc2c1c1cc(F)ccc1n2CCF (stereo not drawn) [Imaging agent 9, 6-Fluoro-9-(2-[^18F]fluoro-ethyl)-2,3,4,9-tetrahydro-1H-carbazole-4-carboxylic acid diethylamide] | 3.79 |  |  |  |  | 
8 | CCN(CC)C(=O)C1CCCc2c1c1cc(F)ccc1n2CC[18F] (stereo not drawn) [Imaging agent 9, 6-Fluoro-9-(2-[^18F]fluoro-ethyl)-2,3,4,9-tetrahydro-1H-carbazole-4-carboxylic acid diethylamide] |  | 0.56 | 84.30 | 0.41 |  | 
9 | CCN(CC)C(=O)C1CCCc2c1c1c(F)cccc1n2CC[18F] (stereo not drawn) [Imaging agent 10, 5-Fluoro-9-(2-[^18F]fluoro-ethyl)-2,3,4,9-tetrahydro-1H-carbazole-4-carboxylic acid diethylamide] |  | 0.50 | 92.70 | 0.51 |  | 
10 | CCN(CC)C(=O)C1CC(C)Cc2c1c1ccccc1n2CCF (stereo not drawn) [Imaging agent 11, 9-(2-[^18F]-Fluoro-ethyl)-2-methyl-2,3,4,9-tetrahydro-1H-carbazole-4-carboxylic acid diethylamide] | 2.12 |  |  |  |  | 
11 | CCN(CC)C(=O)C1CC(C)Cc2c1c1ccccc1n2CC[18F] (stereo not drawn) [Imaging agent 11, 9-(2-[^18F]-Fluoro-ethyl)-2-methyl-2,3,4,9-tetrahydro-1H-carbazole-4-carboxylic acid diethylamide] |  | 0.51 | 90.37 | 0.42 | 3.50 | 3.33
